Measured values from PubChem BioAssay AID256 (DTP/NCI, 2004).
Inconclusive results and toxic doses are left out. Rule for the calls: active = survival T/C of 150% or more; inactive = T/C below 125% in these data. Non-standard residues stand in square brackets, D forms with d. Residues, ends and D or L forms follow the SMILES beside them. ξ: configuration not given here. *: point of attachment. ξE = NC(CCC(=O)O)C(=O)O; Cbz = O=C(OCc1ccccc1)*; OBn = c1ccc(CO*)cc1

System: CD2F1 mice, L1210 leukemia ip, survival T/C
Experiment: NCI In Vivo Anticancer Drug Screen. Data for tumor model L1210 Leukemia (intraperitoneal) in CD2F1 (CDF1) mice
Details: higher = longer survival
Summary of the method: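 Antitumor effect is scored in animals hosting a serially transplanted tumor. Values compare compound-dosed animals against vehicle-only controls as a simple quotient.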

[1] = endpoint: mean survival time, dose: 100.0 mg/kg/injection, schedule: Q04DX002 (ip), vehicle: saline with Tween-80
[2] = endpoint: mean survival time, dose: 200.0 mg/kg/injection, schedule: Q04DX002 (ip), vehicle: saline with Tween-80
[3] = endpoint: mean survival time, dose: 400.0 mg/kg/injection, schedule: Q04DX002 (ip), vehicle: saline with Tween-80
[4] = endpoint: mean survival time, dose: 100.0 mg/kg/injection, schedule: Q01DX009 (ip), vehicle: saline with Tween-80
[5] = endpoint: mean survival time, dose: 200.0 mg/kg/injection, schedule: Q01DX009 (ip), vehicle: saline with Tween-80
[6] = endpoint: mean survival time, dose: 400.0 mg/kg/injection, schedule: Q01DX009 (ip), vehicle: saline with Tween-80
[7] = endpoint: mean survival time, dose: 75.0 mg/kg/injection, schedule: Q01DX001 (ip), vehicle: saline
[8] = endpoint: mean survival time, dose: 150.0 mg/kg/injection, schedule: Q01DX001 (ip), vehicle: saline
[9] = endpoint: mean survival time, dose: 100.0 mg/kg/injection, schedule: Q04DX003 (ip), vehicle: saline with Tween-80
[10] = endpoint: mean survival time, dose: 200.0 mg/kg/injection, schedule: Q04DX003 (ip), vehicle: saline with Tween-80
[11] = endpoint: mean survival time, dose: 400.0 mg/kg/injection, schedule: Q04DX003 (ip), vehicle: saline with Tween-80
[12] = endpoint: mean survival time, dose: 100.0 mg/kg/injection, schedule: Q01DX001 (ip), vehicle: Klucel (hydroxypropylcellulose) (HPC)
[13] = endpoint: mean survival time, dose: 200.0 mg/kg/injection, schedule: Q01DX001 (ip), vehicle: Klucel (hydroxypropylcellulose) (HPC)
[14] = endpoint: mean survival time, dose: 400.0 mg/kg/injection, schedule: Q01DX001 (ip), vehicle: Klucel (hydroxypropylcellulose) (HPC)
[15] = endpoint: mean survival time, dose: 100.0 mg/kg/injection, schedule: Q01DX009 (ip), vehicle: saline
[16] = endpoint: mean survival time, dose: 200.0 mg/kg/injection, schedule: Q01DX009 (ip), vehicle: saline
[17] = endpoint: mean survival time, dose: 400.0 mg/kg/injection, schedule: Q01DX009 (ip), vehicle: saline
[18] = endpoint: mean survival time, dose: 50.0 mg/kg/injection, schedule: Q01DX009 (ip), vehicle: saline with Tween-80
[19] = endpoint: mean survival time, dose: 50.0 mg/kg/injection, schedule: Q04DX003 (ip), vehicle: saline
[20] = endpoint: mean survival time, dose: 100.0 mg/kg/injection, schedule: Q04DX003 (ip), vehicle: saline
[21] = endpoint: mean survival time, dose: 200.0 mg/kg/injection, schedule: Q04DX003 (ip), vehicle: saline
[22] = endpoint: mean survival time, dose: 100.0 mg/kg/injection, schedule: Q04DX003 (ip), vehicle: other
[23] = endpoint: mean survival time, dose: 200.0 mg/kg/injection, schedule: Q04DX003 (ip), vehicle: other
[24] = endpoint: mean survival time, dose: 400.0 mg/kg/injection, schedule: Q04DX003 (ip), vehicle: other
[25] = endpoint: mean survival time, dose: 100.0 mg/kg/injection, schedule: Q01DX001 (ip), vehicle: saline with Tween-80
[26] = endpoint: mean survival time, dose: 200.0 mg/kg/injection, schedule: Q01DX001 (ip), vehicle: saline with Tween-80

Measured: T/C

S=C1NC=CC(S)N1 (stereo not drawn)
inactive: [1] 103 % of control | [2] 98 % of control | [3] 98 % of control

O=NN1Cc2ccccc2C1=O
inactive: [4] 96 % of control | [5] 94 % of control | [6] 94 % of control

C=C(C)c1c2ccccc2cc2cccc(Sc3ccccc3)c12
inactive: [4] 95 % of control | [5] 93 % of control | [6] 95 % of control

Clc1ccc([I+]c2ccc(Cl)cc2)cc1
inactive: endpoint: median survival time, dose: 25.0 mg/kg/injection, schedule: Q04DX002 (ip), vehicle: saline with Tween-80 102 % of control | endpoint: median survival time, dose: 50.0 mg/kg/injection, schedule: Q04DX002 (ip), vehicle: saline with Tween-80 98 % of control | endpoint: median survival time, dose: 100.0 mg/kg/injection, schedule: Q04DX002 (ip), vehicle: saline with Tween-80 91 % of control

CC1=CCCC2(CCC3(C)CC32)C1(C)C (stereo not drawn)
inactive: endpoint: mean survival time, dose: 100.0 mg/kg/injection, schedule: Q04DX003 (ip), vehicle: acetone 98 % of control | endpoint: mean survival time, dose: 200.0 mg/kg/injection, schedule: Q04DX003 (ip), vehicle: acetone 102 % of control | endpoint: mean survival time, dose: 400.0 mg/kg/injection, schedule: Q04DX003 (ip), vehicle: acetone 110 % of control

C[n+]1ccc2ccccc2c1
inactive: [7] 103 % of control | [8] 103 % of control

c1ccc2nc(NCCSSCCNc3cnc4ccccc4n3)cnc2c1
inactive: endpoint: mean survival time, dose: 100.0 mg/kg/injection, schedule: Q01DX009 (ip), vehicle: saline sonified 92 % of control | [9] 94 % of control | endpoint: mean survival time, dose: 200.0 mg/kg/injection, schedule: Q01DX009 (ip), vehicle: saline sonified 93 % of control | [10] 101 % of control | endpoint: mean survival time, dose: 400.0 mg/kg/injection, schedule: Q01DX009 (ip), vehicle: saline sonified 87 % of control | [11] 96 % of control

COC1CC(C)C(OC)c2cc(O)cc(c2O)NC(=O)/C(C)=C/C=C\C(C)C(OC(N)=O)/C(C)=C\C(C)C1OC (stereo not drawn)
inactive: endpoint: median survival time, dose: 1.25 mg/kg/injection, schedule: Q01DX009 (ip), vehicle: saline + alcohol 105 % of control | endpoint: median survival time, dose: 2.5 mg/kg/injection, schedule: Q01DX009 (ip), vehicle: saline + alcohol 105 % of control | endpoint: median survival time, dose: 5.0 mg/kg/injection, schedule: Q01DX009 (ip), vehicle: saline + alcohol 105 % of control | endpoint: median survival time, dose: 10.0 mg/kg/injection, schedule: Q01DX009 (ip), vehicle: saline + alcohol 110 % of control | endpoint: median survival time, dose: 20.0 mg/kg/injection, schedule: Q01DX009 (ip), vehicle: saline + alcohol 107 % of control

CCOC(=O)Nc1cc(NCCc2ccccc2)c([N+](=O)[O-])c(N)n1
inactive: [12] 91 % of control | [13] 94 % of control | [14] 86 % of control

c1ccc2c(c1)[nH]c1nc3ncncc3nc12
inactive: [15] 98 % of control | [16] 104 % of control | [17] 112 % of control

BrC1=C(Br)C(Br)(Br)C(Br)=C1Br
inactive: endpoint: mean survival time, dose: 1.25 mg/kg/injection, schedule: Q01DX009 (ip), vehicle: saline with Tween-80 106 % of control | endpoint: mean survival time, dose: 2.5 mg/kg/injection, schedule: Q01DX009 (ip), vehicle: saline with Tween-80 101 % of control | endpoint: mean survival time, dose: 5.0 mg/kg/injection, schedule: Q01DX009 (ip), vehicle: saline with Tween-80 101 % of control

CC#CCO
inactive: [4] 104 % of control | [5] 98 % of control

O=S(c1ccc(O)cc1)c1ccc(O)cc1
inactive: [18] 90 % of control | [4] 94 % of control

[N-]=C=S.[N-]=C=S.[NH-]N.[NH-]N.[Zn]
inactive: endpoint: mean survival time, dose: 25.0 mg/kg/injection, schedule: Q04DX002 (ip), vehicle: saline with Tween-80 96 % of control | endpoint: mean survival time, dose: 50.0 mg/kg/injection, schedule: Q04DX002 (ip), vehicle: saline with Tween-80 100 % of control | [1] 102 % of control

[CH3][Sb]([CH3])([CH3])([Cl])[Cl]
inactive: [19] 105 % of control | [20] 101 % of control | [21] 101 % of control

CCOC(=O)COC(CN)C(Cl)(Cl)Cl (stereo not drawn)
inactive: [9] 101 % of control | [10] 97 % of control

Cc1ccc(S(=O)(=O)OCCCCOS(=O)(=O)c2ccc(C)cc2)cc1
inactive: [22] 105 % of control | [23] 94 % of control | [24] 96 % of control

COc1ccc(C(C#N)=C2C=CC(=NO)C=C2)cc1
inactive: [9] 98 % of control | [10] 95 % of control | [11] 101 % of control

CC(=O)OCc1cccnc1
inactive: [15] 96 % of control | [16] 94 % of control | [17] 86 % of control

OC(c1ccccc1)c1ccccn1 (stereo not drawn)
inactive: [22] 93 % of control | [23] 98 % of control | [24] 98 % of control

O=c1[nH]cnc2c1CN(c1ccc(Cl)cc1)C2
inactive: [7] 101 % of control | [8] 90 % of control | endpoint: mean survival time, dose: 300.0 mg/kg/injection, schedule: Q01DX001 (ip), vehicle: saline 93 % of control

CCOC(=O)Nc1cc(F)ccc1F
inactive: endpoint: mean survival time, dose: 100.0 mg/kg/injection, schedule: Q01DX009 (ip), vehicle: other 103 % of control | endpoint: mean survival time, dose: 200.0 mg/kg/injection, schedule: Q01DX009 (ip), vehicle: other 94 % of control | endpoint: mean survival time, dose: 400.0 mg/kg/injection, schedule: Q01DX009 (ip), vehicle: other 95 % of control

CNC(=O)Nc1cc(OC)ccc1OC
inactive: [25] 106 % of control | [26] 106 % of control | endpoint: mean survival time, dose: 400.0 mg/kg/injection, schedule: Q01DX001 (ip), vehicle: saline with Tween-80 102 % of control

CCO/N=C(\N)c1ccccc1
inactive: [18] 106 % of control | endpoint: mean survival time, dose: 100.0 mg/kg/injection, schedule: Q01DX001 (ip), vehicle: saline 111 % of control | [4] 98 % of control | endpoint: mean survival time, dose: 200.0 mg/kg/injection, schedule: Q01DX001 (ip), vehicle: saline 108 % of control | [5] 100 % of control | endpoint: mean survival time, dose: 400.0 mg/kg/injection, schedule: Q01DX001 (ip), vehicle: saline 104 % of control

NCCS(=O)(=O)O
inactive: endpoint: mean survival time, dose: 100.0 mg/kg/injection, schedule: Q01DX009 (ip), vehicle: water 95 % of control | endpoint: mean survival time, dose: 200.0 mg/kg/injection, schedule: Q01DX001 (ip), vehicle: water 98 % of control | endpoint: mean survival time, dose: 200.0 mg/kg/injection, schedule: Q01DX009 (ip), vehicle: water 86 % of control | endpoint: mean survival time, dose: 400.0 mg/kg/injection, schedule: Q01DX001 (ip), vehicle: water 96 % of control | endpoint: mean survival time, dose: 400.0 mg/kg/injection, schedule: Q01DX009 (ip), vehicle: water 92 % of control | endpoint: mean survival time, dose: 800.0 mg/kg/injection, schedule: Q01DX001 (ip), vehicle: water 98 % of control | endpoint: mean survival time, dose: 800.0 mg/kg/injection, schedule: Q01DX009 (ip), vehicle: water 92 % of control | endpoint: mean survival time, dose: 1600.0 mg/kg/injection, schedule: Q01DX001 (ip), vehicle: water 107 % of control

CN(CC(=O)O)Cc1ccccc1
inactive: [19] 102 % of control | [20] 100 % of control | [21] 108 % of control

C=CCC1(CO)CCCCC1O (stereo not drawn)
inactive: [1] 96 % of control | [2] 100 % of control | [3] 92 % of control

O=[N+]([O-])c1cc(Cl)c(Cl)cc1[N+](=O)[O-]
inactive: [25] 90 % of control | [26] 90 % of control

O=c1n(-c2ccccc2)c(=O)n(-c2ccccc2)c(=O)n1-c1ccccc1
inactive: [12] 93 % of control | [13] 90 % of control | [14] 101 % of control

O=C(CNC(=O)OCc1ccccc1)NCC(=O)NC(CCC(=O)OCc1ccccc1)C(=O)OCc1ccccc1 (stereo not drawn) (Cbz-Gly-Gly-[ξE](OBn)-OBn)
inactive: [22] 95 % of control | [23] 91 % of control | [24] 95 % of control
